Each structure is given as a SMILES string. Entries after “also recorded” stand apart in the source; their conditions may differ. Like-named read-outs stand apart in the source and are kept apart here.

We go through nine compounds from PMC3606911 (Journal of enzyme inhibition and medicinal chemistry, 2012).

Data set [1] addresses T1, human recombinant COX-2 (Homo sapiens, UniProt P35354).
T1 sequence (P35354 18-604): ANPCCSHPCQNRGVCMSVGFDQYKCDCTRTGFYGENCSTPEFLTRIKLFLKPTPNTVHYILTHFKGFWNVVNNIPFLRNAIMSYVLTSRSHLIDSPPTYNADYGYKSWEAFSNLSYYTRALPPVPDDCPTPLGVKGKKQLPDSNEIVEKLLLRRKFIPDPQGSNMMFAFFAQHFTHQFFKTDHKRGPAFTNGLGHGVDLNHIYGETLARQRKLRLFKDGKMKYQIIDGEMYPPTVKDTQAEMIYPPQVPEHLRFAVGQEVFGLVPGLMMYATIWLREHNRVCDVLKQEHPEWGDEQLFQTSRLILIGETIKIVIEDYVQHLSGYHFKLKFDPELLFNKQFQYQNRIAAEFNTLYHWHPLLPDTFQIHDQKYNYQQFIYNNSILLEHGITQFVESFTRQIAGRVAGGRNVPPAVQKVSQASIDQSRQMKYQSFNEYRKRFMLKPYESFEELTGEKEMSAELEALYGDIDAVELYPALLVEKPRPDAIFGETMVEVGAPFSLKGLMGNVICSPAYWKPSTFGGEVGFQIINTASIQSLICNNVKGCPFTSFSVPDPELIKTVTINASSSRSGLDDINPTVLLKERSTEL
The experiment in a line: COX oxygen electrode assay, COX-2. In kind it is biochemical. Particulars: for Initial activity (% of vehicle control) COX-2 (AEA) / Initial activity (% of vehicle control) COX-2 (AA): vehicle EtOH; for Initial activity (% of vehicle control) COX-2 (AEA): substrate AEA 10 μM; for Initial activity (% of vehicle control) COX-2 (AA): substrate AA 10 μM.

Data set [2] deals with T2, ovine COX-1 (Ovis aries, UniProt P05979).
T2 sequence (P05979 25-600): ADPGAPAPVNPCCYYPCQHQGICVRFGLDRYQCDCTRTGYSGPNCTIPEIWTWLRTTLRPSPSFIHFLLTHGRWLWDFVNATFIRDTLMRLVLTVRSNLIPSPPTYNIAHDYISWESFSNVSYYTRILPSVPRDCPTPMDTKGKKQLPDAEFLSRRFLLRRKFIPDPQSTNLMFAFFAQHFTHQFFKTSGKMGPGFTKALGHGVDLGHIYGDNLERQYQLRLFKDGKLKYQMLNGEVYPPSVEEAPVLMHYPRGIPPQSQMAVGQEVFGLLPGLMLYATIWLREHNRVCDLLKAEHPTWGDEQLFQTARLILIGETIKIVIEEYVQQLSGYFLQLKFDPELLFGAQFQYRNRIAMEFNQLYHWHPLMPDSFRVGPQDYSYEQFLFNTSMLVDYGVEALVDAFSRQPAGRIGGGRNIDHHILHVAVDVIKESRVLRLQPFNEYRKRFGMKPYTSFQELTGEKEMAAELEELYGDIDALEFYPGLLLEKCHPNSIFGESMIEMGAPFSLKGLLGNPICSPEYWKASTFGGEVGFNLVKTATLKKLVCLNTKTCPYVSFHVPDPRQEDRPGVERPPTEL
The experiment in a line: COX oxygen electrode assay, COX-1. It counts as biochemical. Particulars: for Initial activity (% of vehicle control) COX-1 (AEA): substrate 10 μM.

The target in data set [3] is T3, FAAH (Rattus norvegicus, UniProt P97612).
T3 sequence (P97612 1-579): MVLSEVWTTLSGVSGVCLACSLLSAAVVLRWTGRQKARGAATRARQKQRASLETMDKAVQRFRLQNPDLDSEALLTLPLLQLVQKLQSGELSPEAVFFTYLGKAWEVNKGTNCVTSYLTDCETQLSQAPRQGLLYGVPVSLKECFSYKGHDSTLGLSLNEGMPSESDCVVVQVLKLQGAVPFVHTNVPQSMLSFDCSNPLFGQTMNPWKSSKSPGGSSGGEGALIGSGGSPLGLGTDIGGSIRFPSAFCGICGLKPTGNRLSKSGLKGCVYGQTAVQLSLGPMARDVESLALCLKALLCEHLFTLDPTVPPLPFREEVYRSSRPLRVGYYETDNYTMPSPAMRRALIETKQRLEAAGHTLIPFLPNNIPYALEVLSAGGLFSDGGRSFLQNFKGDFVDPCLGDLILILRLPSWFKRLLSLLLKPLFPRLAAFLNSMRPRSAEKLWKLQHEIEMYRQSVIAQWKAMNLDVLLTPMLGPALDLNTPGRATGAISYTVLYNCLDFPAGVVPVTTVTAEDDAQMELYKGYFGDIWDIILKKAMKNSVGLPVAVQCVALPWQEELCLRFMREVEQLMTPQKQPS
The experiment in a line: FAAH assay: hydrolysis of [3H]AEA by rat brain homogenates. In kind it is biochemical.

The subject of data set [4] is acetic acid-induced abdominal stretching. The conditions noted are these: rats, 20 mg/kg i.p., cited from earlier work.
Data set [5] relates to FAAH. The conditions noted are these: cited from earlier work.
The test system of data set [6] is COX isoform. Particulars: cited from earlier work.
Data set [7] has as its system acetic acid-induced abdominal stretching (visceral nociception). Put plainly: Acetic acid-induced abdominal stretching test. In kind it is in vivo. Particulars: mice, 30 mg/kg s.c., 30 min before acetic acid.
The test system of data set [8] is acetic acid-induced abdominal stretching. Particulars: mice, 10 and 30 mg/kg s.c.; cited from earlier work.
For data set [9] the following is noted: cited from earlier work.
Setting [10] is: read-out: inhibition of the cyclooxygenation of AA by COX-2.

As to `Cc1cccnc1NC(=O)CNC(=O)C(C)c1ccc(CC(C)C)cc1` (centres unmarked) [Compound 9, 2-(4-Isobutylphenyl)-N-(2-(3-methylpyridin-2-ylamino)-2-oxoethyl)propanamide], the IC50 – broadly, the midpoint of a concentration-inhibition curve – in data set [1] was roughly 10 µM; in data set [2], roughly 50 µM. Moreover, the inhibition – broadly, the relative decrease from the control value, in per cent – at 100 µM in data set [1] (setting [10]) stood at 18%. Besides, the “Initial activity (% of vehicle control) COX-2 (AEA)” value in data set [1] (compound 3 μM) is 83±8 (3) % of vehicle control; in data set [1] (compound 50 μM), −11±4 (3) % of vehicle control. Further, the “Initial activity (% of vehicle control) COX-2 (AA)” value in [1] (compound 100 μM) is 82±5 (4) % of vehicle control. The “Initial activity (% of vehicle control) COX-1 (AEA)” value in data set [2] (vehicle EtOH, compound 20 μM) is 76±8 (3) % of vehicle control; in data set [2] (vehicle EtOH, compound 50 μM), 56±4 (3) % of vehicle control; in data set [2] (vehicle EtOH, compound 100 μM) it was 23±4 (3) % of vehicle control.
Turning to `Cc1cccnc1NC(=O)CCNC(=O)C(C)c1ccc(CC(C)C)cc1` (centres unmarked) [Compound 11, 2-(4-Isobutylphenyl)-N-(3-(3-methylpyridin-2-ylamino)-3-oxopropyl)propanamide], the Max inhibition % in data set [3] (solvent DMSO) was determined as 90±3%.
The compound `CC(C)Cc1ccc(C(C)C(=O)NCC(=O)NCc2ccccn2)cc1` (centres unmarked) [Compound 12, 2-(4-Isobutylphenyl)-N-(2-oxo-2-(pyridin-2-ylmethylamino)ethyl)propanamide] returned a Max inhibition % in data set [3] (solvent DMSO) of 100%.
As for `CC(C)Cc1ccc(C(C)C(=O)O)cc1` (centres unmarked) [Compound 1, Ibuprofen, reference compound], the “activity in the acetic acid-induced abdominal stretching test” value in data set [4] is recorded as “significantly less effective than 20 mg/kg of 2”.
For `CC(=O)Nc1ccc(OC(=O)C(C)c2ccc(Nc3ccnc(C(F)(F)F)c3)cc2)cc1` (centres unmarked) [4-acetamidophenyl 2-(4-(2-(trifluoromethyl)pyridin-4-ylamino)phenyl)propanoate, reference compound], the IC50 in data set [5] (read-out: IC50 FAAH) was 0.1 µM. Further, the “inhibition of COX isoforms” value in data set [6] is recorded as “did not inhibit either COX isoform”.
Compound `CC(C)Cc1ccc(C(C)C(=O)NCC(=O)NCc2cccnc2)cc1` (centres unmarked) [Compound 13, 2-(4-Isobutylphenyl)-N-(2-oxo-2-(pyridin-3-ylmethylamino)ethyl)propanamide] gave a Max inhibition % in data set [3] (solvent DMSO) of 81±8%.
`Cc1cccnc1NC(=O)C(C)c1ccc(CC(C)C)cc1` (centres unmarked) [Compound 2, N-(3-methylpyridin-2-yl)-2-(4′-isobutylphenyl)propionamide]: in data set [3], the “fold more potent than 1 as an FAAH inhibitor” value is given as “approximately 250 fold”. Also, the “FAAH/COX-1 potency ratio, ratio for 1 set to unity” value in [3] (higher number = increased FAAH inhibitory potency relative to COX-1 potency) is given as ~ 500. The Max inhibition % in data set [3] (solvent DMSO) and in [3] (solvent EtOH) was 100% throughout. Also, the “number of abdominal stretches elicited by acetic acid” value in data set [7] is reported as “active in vivo; also recorded: decreased the number of abdominal stretches”. Moreover, the IC50 is roughly 19 µM in data set [1]; roughly 240 µM in data set [2] (IC50 COX-1 (approximate), AA 10 μM as substrate, DMSO as vehicle); roughly 60 µM in data set [2] (IC50 COX-1 (approximate), AA 10 μM as substrate, ethanol as vehicle). Besides, in data set [1] (setting [10]), the inhibition at 300 µM amounted to 41%. For the same compound, the “Initial activity (% of vehicle control) COX-2 (AEA)” value is given as 111±15 (6) % of vehicle control in data set [1] (compound 3 μM), 77±10 (3) % of vehicle control in data set [1] (compound 10 μM), 51±17 (3) % of vehicle control in data set [1] (compound 20 μM) and 0.7±9 (4) % of vehicle control in [1] (compound 50 μM). In addition, the “Initial activity (% of vehicle control) COX-2 (AA)” value in data set [1] (compound 100 μM) was 88±8 (3) % of vehicle control; in data set [1] (compound 300 μM), 59±4 (4) % of vehicle control. Besides, the “mode of inhibition of FAAH” value in data set [5] was “acts non-competitively”. For the same compound, the “orders of magnitude more potent as an inhibitor of FAAH than ibuprofen” value in data set [5] is listed as 2–3 orders of magnitude. Also, the “activity in the acetic acid-induced abdominal stretching test” value is “has analgesic activity; also recorded: greater than for a dose of 10 mg/kg s.c. and for 30 mg/kg of diclofenac” in [8]; “has analgesic activity; also recorded: significantly greater reduction in stretching than the same dose of 1” in data set [4] (20 mg/kg). Besides, in data set [9], the acute ulcerogenesis entry is given as “much lower than seen with 1”. The “COX isoform selectivity with AA as substrate” value in data set [2] (AA as substrate, COX-1 vs COX-2) is “COX-1 selective”. The “Initial activity (% of vehicle control) COX-1 (AEA)” value was 106±15 (3) % of vehicle control in data set [2] (vehicle DMSO, compound 20 μM); 82±4 (6) % of vehicle control in [2] (vehicle DMSO, compound 50 μM); 63±6 (6) % of vehicle control in data set [2] (vehicle DMSO, compound 100 μM); 59±8 (6) % of vehicle control in data set [2] (vehicle DMSO, compound 200 μM); 36±0.9 (3) % of vehicle control in [2] (vehicle DMSO, compound 400 μM); 70±6 (3) % of vehicle control in data set [2] (vehicle EtOH, compound 20 μM). Further, the “Initial activity (% of vehicle control) COX-1 (AEA)” value in data set [2] (vehicle EtOH, compound 50 μM) is 57±0.6 (3) % of vehicle control; in data set [2] (vehicle EtOH, compound 100 μM), 45±8 (3) % of vehicle control; in [2] (vehicle EtOH, compound 200 μM), 14±4 (3) % of vehicle control.
As to `Cc1cccnc1OC(=O)C(C)c1ccc(CC(C)C)cc1` (centres unmarked) [Compound 3, 3-methylpyridin-2-yl 2-(4-isobutylphenyl)propanoate], the Max inhibition % in data set [3] (solvent EtOH) came to 100%.
`Cc1cccc(NC(=O)CNC(=O)C(C)c2ccc(CC(C)C)cc2)n1` (centres unmarked) [Compound 10, 2-(4-Isobutylphenyl)-N-(2-(6-methylpyridin-2-ylamino)-2-oxoethyl)propanamide] returned a Max inhibition % in data set [3] (solvent EtOH) of 100%.
